Experimental data taken from PubChem BioAssay AID449762 (Southern Research Specialized Biocontainment Screening …, 2010).
Inconclusive results are not listed.

System: M. tuberculosis H37Rv growth inhibition, 7H9 media
Test: M. tuberculosis growth inhibition, HTS (AID 449762);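 note: bacterial growth assessed after seven days of incubation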
Conditions: for IC90: measured here: IC90 growth inhibition

Row | SMILES | IC50 [µM] | IC90 [µM]
1 | NCCCn1c(C(=O)c2ccc(Cl)cc2)c2ccc([N+](=O)[O-])cc2[n+]1[O-] | 23.9 | 32.3
2 | O=C(C1CCCN(c2ncnc3c2nc2n3CCCCC2)C1)N1CCN(c2ccc(Cl)cc2)CC1 (stereo unspecified) | 30.6 | 40.3
3 | Cc1ccc(C2(c3ccc(C)cc3)CC2C(=O)Nc2ccc([N+](=O)[O-])cc2O)cc1 (stereo unspecified) | 19.7 | 27.1
4 | COc1ccc(N=c2cc(-c3ccc(O)cc3)oc3ccccc23)cc1 | 22.3 | 25.8
5 | FC(F)(F)c1cc(CO[C@@H]2CCCN[C@@H]2c2ccccc2)cc(C(F)(F)F)c1 | 24.5 | 28.8
6 | CN(C)c1ccc(CNC2C3CC4CC(C3)CC2C4)cc1 (stereo unspecified) | 11.8 | 13
7 | O=C(CSc1ncnc2nc[nH]c12)c1ccc(Cl)cc1 | 12.1 | 13.9
8 | CCC[C@@H]1C[C@@H](C(=O)NC(C(C)Cl)[C@H]2O[C@H](SC)[C@H](O)[C@@H](O)[C@H]2O)N(C)C1 (stereo partly specified) | 1.53 | 5.1
9 | COC(=O)c1ccc(N/C(C)=C/C(=O)c2ccc(C)o2)cc1 | 97.4 | > 100
10 | O=C1c2ccccc2C(=O)N1Nc1ccccc1 |  | > 100
11 | CCOC(=O)COn1c2c(c3c4no[n+]([O-])c4ccc31)CCCC2 | 3.16 | 5.83
12 | C=CCc1c(C)nc(C)nc1N/N=C/c1ccccc1O | 2.25 | 4.08
13 | CC(Sc1nnc(NC2CCCCC2)s1)C(=O)Nc1ccc2c(c1)C(=O)c1ccccc1C2=O (stereo unspecified) | 11.5 | 12.6
14 | COc1ccc(C(=O)OCC(=O)c2ccc(Br)s2)c(OC)c1 | 26 | > 100
15 | CCCC(=O)OCCNc1cc(SCCC(=O)OC)c2nonc2c1[N+](=O)[O-] | 1.49 | 5.7
16 | CN(C)c1ccc(O)c2c1CC1CC3[C@@H](N(C)C)C(=O)C(C(N)=O)C(=O)[C@]3(O)C(=O)C1C2=O (stereo partly specified) | 1.27 | 3.62
17 | Cn1c(CNc2ccccc2O)nc2ccccc21 | 3.01 | 3.52
18 | Nc1c2c(nc3sc4c(c13)CCCCC4)CCCC2 | 4.56 | 13.8
19 | COc1cccc(Nc2ccc([N+](=O)[O-])c3nonc23)c1 | 9.43 | 13.6
20 | CCOc1ccc2nc(/N=C/c3nc(-c4ccccc4)oc3O)sc2c1 |  | > 100
21 | COC(=O)c1cc(=O)n(-c2ccc(F)cc2)c(=Nc2ccc(F)cc2)s1 | < 0.2 | 1.86
22 | O=c1oc2ccccc2c(Nc2ccccc2O)c1[N+](=O)[O-] | 7.1 | 14
23 | CCCCn1c(O)c(/C=C2/C=CC=N2)c(=O)[nH]c1=O | 6.55 | 17.1

Row | SMILES | IC50 [µM] | IC90 [µM]
24 | Cc1ccccc1C1C(C#N)=C2N=C(N)c3c(sc4c3CCCCC4)N2C2=C1C(=O)CC(C)(C)C2 (stereo unspecified) |  | > 100
25 | Cc1ccc(-c2csc3ncnc(Nc4ccc(N5CCOCC5)cc4)c23)cc1 | 18.4 | 50.1
26 | O=C(CCl)Nc1nccs1 | 2.01 | 4.71
27 | CCOc1ccccc1NC(=O)C12CC3CC(C1)CC(c1ccc(C)cc1)(C3)C2 | 30.1 | > 100
28 | O=C(CCc1c[nH]c2ccccc12)N1CCN(S(=O)(=O)c2ccccc2)CC1 | 94.3 | > 100
29 | CCCCCc1nc2c(c(=O)c3ccccc3n2C)c(=O)n1C1CCCCCC1 | 30 | > 100
30 | Cc1ccc(NCc2ccc(O)c3ncccc23)cc1C | 56 | > 100
31 | COc1ccc(C2Oc3ccccc3C3=C2C(c2cccs2)n2ncnc2N3)cc1 (stereo unspecified) | 51.2 | > 100
32 | CSCCC1NC(=O)N(CC(=O)N2N=C(c3ccc(Cl)cc3)CC2c2ccco2)C1=O (stereo unspecified) | 10.5 | 16
33 | COc1ccc(CCNc2nc(N3CCCCC3)nc(N3CCCCC3)n2)cc1OC | 17.3 | 22.5
34 | CC1=CC(=O)c2c(O)ccc(O)c2C1=O | 8.02 | 12.2
35 | COc1cc(C)ccc1OCCOc1c(C)cc(Cl)cc1Cl | 21.6 | > 100
36 | CC(/C=C/c1ccccc1)=N\NC(N)=S | 3.84 | 9.07
37 | CCOC(=O)c1ccc(Nc2cc3ccccc3c(=O)[nH]2)cc1 | 72.3 | > 100
38 | O=C(Nc1nc2c(s1)CCCC2)c1cc(-c2ccc3c(c2)OCO3)nc2ccccc12 | 66 | > 100
39 | Cc1cc2c(cc1C)CSC(c1c(O)ccc3ccccc13)SC2 | 45.3 | > 100
40 | CCCn1c(Nc2nc3ccccc3n2C)nc2ccccc21 | 83 | 88.7
41 | N#CC(C(=O)NCc1ccco1)c1nc2ccccc2nc1N1CCOCC1 (stereo unspecified) | 43 | 45.2
42 | CC(C)c1ccc2c(c1)CCC1C(C)(CN)CCCC21C (stereo unspecified) | 15.7 | 25.6
43 | Nc1ccc2c(c1)oc1ccccc12 |  | > 100
44 | CCOc1ccc(NC(=S)Nc2ccc(C)c([N+](=O)[O-])c2)cc1 | 45 | > 100
45 | COc1cccc(-c2nnc(NC(=O)c3ccc(S(=O)(=O)N4CCOCC4)cc3)o2)c1 | 23.6 | 26.7
46 | COc1ccc(CN(CCC(c2ccccc2)c2ccc(OC(C)C)cc2)C(=O)CCl)cc1OC (stereo unspecified) | 6.53 | 12.5

Row | SMILES | IC50 [µM] | IC90 [µM]
47 | O=C1N[C@@H](Cc2ccccc2)C(=O)N2[C@H]3Nc4ccccc4[C@@]3([C@]34C[C@H]5C(=O)N[C@@H](Cc6ccccc6)C(=O)N5[C@H]3Nc3ccccc34)C[C@@H]12 | 79.1 | > 100
48 | Clc1ccc2c(c1)CCc1cccnc1C2=C1CCNCC1 | 26.8 | 31.3
49 | O=C(Oc1ccc2ccccc2c1)c1cncc(Br)c1 | 13 | 60.3
50 | Cc1cc(CC(C)C)n(-c2nc3ccccc3c(=O)n2OCC(N)=O)n1 | 3.88 | 12.7
51 | CO[C@@]12[C@H](COC(N)=O)C3=C(C(=O)C(C)=C(N)C3=O)N1C[C@@H]1N[C@@H]12 | 39.6 | 69.5
52 | NC(=S)N/N=C/c1ccc(-c2ccccc2)o1 | 48.8 | 75
53 | O=C1CCc2ccc(OCCCCN3CCN(c4cccc(Cl)c4Cl)CC3)cc2N1 | 13.1 | > 100
54 | CN1CCc2cc3c(c4c2C1Cc1ccccc1-4)OCO3 (stereo unspecified) | 1.66 | 1.94
55 | C/C(=N\N=C(/N)SC1CC(=O)N(c2ccc(Cl)cc2)C1=O)c1cccs1 (stereo unspecified) | 33 | > 100
56 | COc1ccc(-c2cn(Cc3ccc(C(=O)NCc4ccc(C)cc4)cc3)c(C(C)N)n2)cc1 (stereo unspecified) | 46.5 | 53.2
57 | O=C(c1cccc(-c2ccco2)c1)N1CCCC(N2CCN(c3ccc(F)cc3)CC2)C1 (stereo unspecified) | 52.5 | 78.8
58 | COc1ccc(C(=O)Cn2nc(CNc3ccc(Br)cc3)[n+]3c2CCCCC3)cc1 | 9.77 | 13.7
59 | COc1cccc(NC(=O)C2CCN(Cc3cnn(-c4ccccc4)c3-n3cccc3)CC2)c1 | 48.4 | 56.2
60 | CSc1cccc(NC(=O)CCS(=O)(=O)c2cccc3nonc23)c1 | 1.72 | 7.46
61 | O=C1C(=O)c2ccccc2-c2ccccc21 | 6.31 | 6.91
62 | O=C(CSc1ccccn1)Nc1nonc1[N+](=O)[O-] | 1.45 | 2.25
63 | CN1/C(=C/C(=O)c2nc(S(C)(=O)=O)ncc2Cl)C(C)(C)c2ccccc21 | 3.21 | 10.7
64 | CCOC1OC(=O)C(Cl)=C1Nc1ccccc1C (stereo unspecified) | 2.91 | 6.18
65 | Cc1ccc(C(=O)ONc2ccc(N=O)cc2)cc1 | 23.2 | 43.1
66 | N=c1n(Cc2ccc(Cl)cc2)c2ccccc2n1CC(O)COc1ccccc1 (stereo unspecified) | 17.5 | 25.5
67 | CCNc1nc(Nc2ccc(C)c(Cl)c2)c2cnn(C)c2n1 | 43.3 | > 100
68 | Clc1ccc(CCC(Cn2ccnc2)Sc2c(Cl)cccc2Cl)cc1 (stereo unspecified) | 7.79 | 14.3
69 | COc1ccc(N=c2ssnc2Cl)cc1 | 38.9 | > 100

Row | SMILES | IC50 [µM] | IC90 [µM]
70 | O=C(Nc1cccc(Cl)c1)N1CCN(C/C=C/c2ccccc2)CC1 | 37.5 | 52.7
71 | CC1CCC/C(=N\NC(=S)Nc2ccccc2)C1 (stereo unspecified) | 43.2 | 67.5
72 | N[C@@H](CCl)C(=O)O | 39.4 | 58.9
73 | CCc1nc2ccccc2c(C(=O)Nc2cc(C)ccc2C)c1C | 13 | > 100
74 | COc1ccc(-c2c[n+]3c4n2CCCCC4=C(c2ccccc2)C3)cc1 | 35.5 | 43.7
75 | CCOC(=O)CN(C#N)c1nc(N(C)C)nc(N(C)C)n1 | 11.1 | 12.5
76 | Cc1ccc(C(=O)N/N=C(/CC(=O)c2cccs2)C(F)(F)F)cc1 | 2.97 | 3.28
77 | Cc1cccc(C)c1OCCCCc1c(C)n[nH]c1C | 10.9 | 26.4
78 | Cc1cccc(C(=O)OCC(=O)N2CCc3ccccc3C2)c1O | 46.3 | > 100
79 | Cn1cccc1/C=C1/C(=O)NC(=S)N(Cc2ccc(F)cc2)C1=O | 24.2 | > 100
80 | CC1=NN(C(N)=S)C(=O)C1N=Nc1ccc(C)c(Br)c1 (stereo unspecified) | 11.5 | 19.1
81 | Cc1ccc(NC(=O)COc2ccccc2CNC(C)(C)CC(C)(C)C)cc1 | 22.6 | 29.8
82 | CCOc1ccc(-n2c(-c3ccc(Br)cc3)c[n+]3c2CCCCC3)cc1 | 69.7 | > 100
83 | O=C(/C=C/c1ccco1)Oc1ccc(C(=S)N2CCOCC2)cc1 | 38.7 | > 100
84 | CCCn1c(=N)c(C(=O)NCc2ccc3c(c2)OCO3)cc2c(=O)n3cccc(C)c3nc21 | 19.8 | 29
85 | CCOc1ccc(NC(=O)c2sc3nc(C)nc(N4CCOCC4)c3c2C)cc1 | 35.6 | 61.3
86 | COc1ccc(-c2csc3nc(-c4ccccc4OC)oc(=O)c23)cc1 | < 0.2 | 24.1
87 | CC(Oc1cc2oc(=O)c3c(c2cc1Cl)CCCC3)C(=O)NCc1ccccn1 (stereo unspecified) | 7.47 | > 100
88 | Cc1ccc(C)c(N2CCN(C(=O)c3ccc4nc(N5CCOCC5)sc4c3)CC2)c1 | 37.6 | 47.4
89 | Cc1oc(-c2cccc(Cl)c2)nc1CN1CCC(C(=O)N2CCN(c3ccccc3F)CC2)CC1 | 20.8 | 26.3
90 | O=c1cc(-c2ccccc2Cl)oc2ccc([N+](=O)[O-])c(O)c12 | 11.9 | 15.6
